Experimental data as given in patent publication US20090232919A1 (priority 2006, published 2009).
Marks after values point to notes of the source that are not given here.

Legend:
Format in all cases: in vivo, Male Sprague-Dawley rats
[1] = test system: GSH-Depleted Liver Injury in Rat Model; test: Effect on GSH-depleted (BSO) acetaminophen liver injury in rat model; conditions: for necrosis of hepatic cell: orally administrated
Description: (§1) Male Sprague-Dawley rats (Samtako Co. Korea) weighing 140-160 g were used in the experiment and were allowed to access to feed (Harlan, teklan, USA) and drinking water. All animals were maintained in a controlled environment with temperatures at 22±2° C. and humidity at 55±5% with 12 hours of light and dark cycles for at least one week prior to use.
3 hours after the end of treatment, 2 mM/kg of BSO (buthionine sulfoximine) was intraperitoneally administrated to the rats to deplete GSH (glutathione) level of the rats. 1 hr after the treatment, the acetaminophen solution prepared in Reference Example (1.2 g/kg) was orally administrated into the rats to induce hepatotoxicity.
24 hours after the inducement, the survival rate of the rats was determined and the abdominal cavity was excised to deliver liver organ to test the effect of the inventive extract and compound obtained in Examples on liver injury.

[2] = test system: Acetaminophen-Induced Liver Injury in Rat Model; test: Orally administrated extract and compound on acetaminophen-induced liver injury in rat model; conditions: for increased activity of blood ALT induced by acetaminophen / increased activity of blood LDH induced by acetaminophen: once a day for 4 days; for central necrosis and inflammation of liver (histo-pathological examination): oral, acetaminophen-induced, FIG. 3
Description: as §1
24 hours after the end of treatment, the acetaminophen solution prepared in Reference Example (1.2 g/kg) was orally administrated into the rats to induce hepatotoxicity.
24 hours after the treatment, the abdominal cavity was excised to deliver liver organ and blood to test the effect of the inventive extract and compound obtained in Examples on liver injury.
The effect on the indicators of liver injury known in the art, i.e., ALT (R. Rej, Clin. Chem., 24, pp 1971-1979, 1978) and LDH (S. Sherlock et al., Blackwell Science, London, p 23, 2002) activity in rat blood was determined.
The histo-pathological examination on liver organ was performed to determine the effect of inventive extract and compound on the necrosis and inflammation of liver induced by acetaminophen.

[3] = test system: acetaminophen-induced hepatotoxicity in rats; test: Treating effect on liver injury (dosing after acetaminophen); conditions: 50 mg/kg orally from 1 hour after acetaminophen, versus PEG400 (40%) negative control; FIG. 7
Description: as §1
The acetaminophen solution prepared in Reference Example (1.2 g/kg) was orally administrated into the rats to induce hepatotoxicity. […] All the testing rats had been starved for 24 hours prior to acetaminophen-administration.
24 hours after the inducement, the abdominal cavity was excised to deliver liver organ to test the effect of the inventive compound obtained in Examples on liver injury.

[4] = test system: Acetaminophen-Induced Liver Injury in Rat Model; test: Intravenously administrated extract and compound on acetaminophen-induced liver injury in rat model
Description: as §1
3 hours after the end of treatment, the acetaminophen solution prepared in Reference Example (1.2 g/kg) was orally administrated into the rats to induce hepatotoxicity.
24 hours after the inducement, the abdominal cavity was excised to deliver liver organ and blood to test the effect of the inventive extract and compound obtained in Examples on liver injury.

[5] = GSH-depleted (BSO) + acetaminophen, FIG. 6b
[6] = oral dose of 50 mg/kg and 100 mg/kg
[7] = oral dose of 25 mg/kg and 50 mg/kg, FIG. 1
[8] = intravenous dose of 5 mg/kg and 15 mg/kg, FIG. 4

COC(=O)c1cc(OC)c2c(c1-c1c(C(=O)OC)cc(OC)c3c1OCO3)OCO2 [DDB, dimethyl-4,4′-dimethoxy-5,6,5′,6′-dimethylene dioxybiphenyl-2,2′-dicarboxylate]
necrosis of hepatic cell [1, 5]: could not reduce
Central vein neighboring cell necrosis (N) ([2]; APAP, 50 mg/kg, p.o, n = 10): 2.38 ± 0.5^
Hepatic cell degeneration (HD) Central Vein (CV) ([2]; APAP, 50 mg/kg, p.o, n = 10): 0.4 ± 0.2
Hepatic cell degeneration (HD) Limbic region ([2]; APAP, 50 mg/kg, p.o, n = 10): 0
Hepatic cell degeneration (HD) Middle Region ([2]; APAP, 50 mg/kg, p.o, n = 10): 0.2 ± 0.2
Inflammatory cell ([2]; APAP, 50 mg/kg, p.o, n = 10): 0^##
Survival ratio (%) ([2]; APAP, 50 mg/kg, p.o, n = 10): 100%
increased activity of blood ALT induced by acetaminophen [2, 6]: strikingly reduce
increased activity of blood LDH induced by acetaminophen [2, 6]: strikingly reduce
central necrosis and inflammation of liver (histo-pathological examination) [2]: reduced little

O=C1C[C@@H](c2ccc(O)cc2)Oc2cc(O)ccc21 [LQ, liquiritigenin]
Hepatic cell degeneration (HD) Central Vein (CV) ([1]; APAP + BSO, 15 mg/kg,i.v.): 0.2 ± 0.2
Hepatic cell degeneration (HD) Limbic region ([1]; APAP + BSO, 15 mg/kg,i.v.): 2 ± 0.03
Hepatic cell degeneration (HD) Middle Region ([1]; APAP + BSO, 15 mg/kg,i.v.): 0.2 ± 0.2
Hepatic cell degeneration (HD) Central Vein (CV) ([1]; APAP + BSO, 50 mg/kg, p.o): 1.5 ± 0.5
Hepatic cell degeneration (HD) Limbic region ([1]; APAP + BSO, 50 mg/kg, p.o): 1.5 ± 0.5
Hepatic cell degeneration (HD) Middle Region ([1]; APAP + BSO, 50 mg/kg, p.o): 1.5 ± 0.5
Inflammatory cell ([1]; APAP + BSO, 50 mg/kg, p.o): 0
survival rate ([1]; GSH-depleted (BSO) + acetaminophen, versus 26.7% without treatment): strikingly increased
hepatic injury ([1]; intravenously administrated for 2 days, GSH-depleted, FIG. 6b): apparently inhibits
necrosis of hepatic cell [1, 5]: strikingly reduced
necrosis of hepatic cell [3]: more strikingly inhibited
Central vein neighboring cell necrosis (N) ([2]; APAP, 50 mg/kg, p.o, n = 10): 0.8 ± 0.8
Hepatic cell degeneration (HD) Central Vein (CV) ([2]; APAP, 50 mg/kg, p.o, n = 10): 0.8 ± 0.8
Hepatic cell degeneration (HD) Limbic region ([2]; APAP, 50 mg/kg, p.o, n = 10): 0.2 ± 0.2
Hepatic cell degeneration (HD) Middle Region ([2]; APAP, 50 mg/kg, p.o, n = 10): 0.6 ± 0.6
Inflammatory cell ([2]; APAP, 50 mg/kg, p.o, n = 10): 0^##
increased activity of blood ALT induced by acetaminophen [2, 7]: significantly reduced
increased activity of blood LDH induced by acetaminophen [2, 7]: significantly reduced
central necrosis and inflammation of liver (histo-pathological examination) [2]: strikingly reduced
Central vein neighboring cell necrosis (N) ([4]; APAP, 5 mg/kg, i. v): 0.2 ± 0.2
Hepatic cell degeneration (HD) Central Vein (CV) ([4]; APAP, 5 mg/kg, i. v): 0.8 ± 0.4
Hepatic cell degeneration (HD) Limbic region ([4]; APAP, 5 mg/kg, i. v): 0
Hepatic cell degeneration (HD) Middle Region ([4]; APAP, 5 mg/kg, i. v): 0.6 ± 0.4
Inflammatory cell ([4]; APAP, 5 mg/kg, i. v): 0
increased activity of blood ALT induced by acetaminophen [4, 8]: significantly reduced
increased activity of blood LDH induced by acetaminophen [4, 8]: significantly reduced
central necrosis and inflammation of liver ([4]; intravenously administrated, FIG. 5): strikingly reduced
